Laboratory results: US20140343049A1, “DIHYDROFURAN DERIVATIVES AS INSECTICIDAL COMPOUNDS” (SYNGENTA PARTICIPATIONS AG, priority 2011, published 2014)

How the values were obtained:
Format in all cases: in vivo
[1] = system: Spodoptera littoralis (Egyptian cotton leafworm); test: Spodoptera littoralis cotton leaf disc spray test; settings: foliar, 72 h, cotton leaf discs sprayed at 200 ppm, 5 L1 larvae, mortality, feeding behavior, growth regulation 3 days after treatment
Text: Cotton leaf discs were placed on agar in a 24-well microtiter plate and sprayed with test solutions at an application rate of 200 ppm. After drying, the leaf discs were infested with 5 L1 larvae. The samples were checked for mortality, feeding behavior, and growth regulation 3 days after treatment (DAT).

[2] = system: Heliothis virescens (tobacco budworm); test: Heliothis virescens egg test on artificial diet; settings: 96 h, 200 ppm (concentration in well 18 ppm), eggs 0-24 h old, 4 days, egg mortality, larval mortality, growth regulation
Method: Eggs (0-24 h old) were placed in 24-well microtiter plate on artificial diet and treated with test solutions at an application rate of 200 ppm (concentration in well 18 ppm) by pipetting. After an incubation period of 4 days, samples were checked for egg mortality, larval mortality, and growth regulation.

[3] = system: Plutella xylostella (diamond back moth); test: Plutella xylostella L2 larvae test on artificial diet; settings: 144 h, 200 ppm (concentration in well 18 ppm), 6 days, larval mortality and growth regulation
Method: (§1) 24-well microtiter plate (MTP) with artificial diet was treated with test solutions at an application rate of 200 ppm (concentration in well 18 ppm) by pipetting. After drying, the MTPs were infested with L2 larvae (7-12 per well). After an incubation period of 6 days, samples were checked for larval mortality and growth regulation.

[4] = system: Diabrotica balteata (corn root worm); test: Diabrotica balteata L2 larvae test on artificial diet; settings: 120 h, 200 ppm (concentration in well 18 ppm), 5 days, larval mortality and growth regulation
Method: as §1, with “A 24-well” for “24-well”, “(6-10” for “(7-12”, “5” for “6”
as §1, with “A 24-well” for “24-well”, “12.5” for “200”, “MTP's” for “MTPs”, “(6-10” for “(7-12”, “5” for “6”

[5] = system: Tetranychus urticae (two-spotted spider mite); test: Tetranychus urticae bean leaf disc spray test; settings: foliar, 192 h, bean leaf discs sprayed at 200 ppm, mixed ages, egg, larval and adult mortality 8 days later
Text: Bean leaf discs on agar in 24-well microtiter plates were sprayed with test solutions at an application rate of 200 ppm. After drying, the leaf discs are infested with mite populations of mixed ages. 8 days later, discs are checked for egg mortality, larval mortality, and adult mortality. […]

Measured: pest or weed control at 200 ppm

Cc1cc(C2=CC(c3cc(Cl)cc(Cl)c3)(C(F)(F)F)OC2)ccc1C(=O)NCC(F)(F)F (centres unmarked) [Compound A3]
≥ 80%: all assays above

COc1ccc(CNC(=O)c2ccc(C3=CC(c4cc(Cl)cc(Cl)c4)(C(F)(F)F)OC3)cc2C)cc1 (centres unmarked) [Compound A10]
not listed: [4]
≥ 80%: all other assays above

Cc1csc(NC(=O)c2ccc(C3=CC(c4cc(Cl)cc(Cl)c4)(C(F)(F)F)OC3)cc2C)n1 (centres unmarked) [Compound A11]
not listed: [4]
≥ 80%: all other assays above

Cc1cc(C2=CC(c3cc(Cl)cc(Cl)c3)(C(F)(F)F)OC2)ccc1C(=O)NC1(C)CSC1 (centres unmarked) [Compound A12]
not listed: [4]
≥ 80%: all other assays above

Cc1cc(C2=CC(c3cc(Cl)cc(Cl)c3)(C(F)(F)F)OC2)ccc1C(=O)NC1C[S+]([O-])C1 (centres unmarked) [Compound A13]
≥ 80%: [1] | [2] | [5]

Cc1cc(C2=CC(c3cc(Cl)cc(Cl)c3)(C(F)(F)F)OC2)ccc1C(=O)NC1CCC1 (centres unmarked) [Compound A14]
≥ 80%: [1] | [2] | [5]

Cc1cc(C2=CC(c3cc(Cl)cc(Cl)c3)(C(F)(F)F)OC2)ccc1C(=O)NCc1nc2ccccc2[nH]1 (centres unmarked) [Compound A18]
not listed: [1]
≥ 80%: all other assays above

CCC(CO)NC(=O)c1ccc(C2=CC(c3cc(Cl)cc(Cl)c3)(C(F)(F)F)OC2)cc1C (centres unmarked) [Compound A28]
≥ 80%: [1] | [5]

Cc1cc(C2=CC(c3cc(Cl)cc(Cl)c3)(C(F)(F)F)OC2)ccc1C(=O)NCc1cccnc1 (centres unmarked) [Compound A35]
≥ 80%: all assays above

Cc1cc(C2=CC(c3cc(Cl)cc(Cl)c3)(C(F)(F)F)OC2)ccc1C(=O)NC(C)c1ccccc1 (centres unmarked) [Compound A38]
not listed: [4]
≥ 80%: all other assays above

Cc1cc(C2=CC(c3cc(Cl)cc(Cl)c3)(C(F)(F)F)OC2)ccc1C(=O)NC1CC(C)(C)N(C)C(C)(C)C1 (centres unmarked) [Compound A40]
≥ 80%: [5]

Cc1cc(C2=CC(c3cc(Cl)cc(Cl)c3)(C(F)(F)F)OC2)ccc1C(=O)NCc1cccc(Cl)c1 (centres unmarked) [Compound A43]
≥ 80%: [1] | [4] | [5]

CC(=O)NCCNC(=O)c1ccc(C2=CC(c3cc(Cl)cc(Cl)c3)(C(F)(F)F)OC2)cc1C (centres unmarked) [Compound A45]
≥ 80%: [5]

Cc1cc(C2=CC(c3cc(Cl)cc(Cl)c3)(C(F)(F)F)OC2)ccc1C(=O)NCc1ccc(-n2cccn2)cc1 (centres unmarked) [Compound A46]
not listed: [1]
≥ 80%: all other assays above

Cc1cc(C2=CC(c3cc(Cl)cc(Cl)c3)(C(F)(F)F)OC2)ccc1C(=O)NCc1ccc(Cl)nc1 (centres unmarked) [Compound A52]
not listed: [4]
≥ 80%: all other assays above

Cc1cc(C2=CC(c3cc(Cl)cc(Cl)c3)(C(F)(F)F)OC2)ccc1C(=O)Nc1ccccc1Cl (centres unmarked) [Compound A56]
not listed: [1]
≥ 80%: all other assays above

COc1ccc(NC(=O)c2ccc(C3=CC(c4cc(Cl)cc(Cl)c4)(C(F)(F)F)OC3)cc2C)c(OC)c1 (centres unmarked) [Compound A58]
not listed: [1]
≥ 80%: all other assays above

CSc1ccccc1NC(=O)c1ccc(C2=CC(c3cc(Cl)cc(Cl)c3)(C(F)(F)F)OC2)cc1C (centres unmarked) [Compound A63]
≥ 80%: [3] | [4] | [5]

Cc1cc(C2=CC(c3cc(Cl)cc(Cl)c3)(C(F)(F)F)OC2)ccc1C(=O)Nc1ccc2ncsc2c1 (centres unmarked) [Compound A64]
not listed: [5]
≥ 80%: all other assays above

O=C(NCc1ccccc1)c1ccc(C2=CC(c3cc(Cl)cc(Cl)c3)(C(F)(F)F)OC2)nc1 (centres unmarked) [Compound B9]
≥ 80%: [3] | [5]

Cc1nc(C2=CC(c3cc(Cl)cc(Cl)c3)(C(F)(F)F)OC2)ccc1C(=O)NCC(F)(F)F (centres unmarked) [Compound C1]
not listed: [5]
≥ 80%: all other assays above

CCCCNC(=O)c1ccc(C2=CC(c3cc(Cl)cc(Cl)c3)(C(F)(F)F)OC2)nc1C (centres unmarked) [Compound C3]
not listed: [5]
≥ 80%: all other assays above

Cc1nc(C2=CC(c3cc(Cl)cc(Cl)c3)(C(F)(F)F)OC2)ccc1C(=O)NCc1ccccc1 (centres unmarked) [Compound C9]
not listed: [5]
≥ 80%: all other assays above

Cc1nc(C2=CC(c3cc(Cl)cc(Cl)c3)(C(F)(F)F)OC2)ccc1C(=O)NCc1ccccc1F (centres unmarked) [Compound C10]
not listed: [5]
≥ 80%: all other assays above

Cc1nc(C2=CC(c3cc(Cl)cc(Cl)c3)(C(F)(F)F)OC2)ccc1C(=O)NC(C)c1ccccc1 (centres unmarked) [Compound C11]
not listed: [5]
≥ 80%: all other assays above

COc1ccc(CNC(=O)c2ccc(C3=CC(c4cc(Cl)cc(Cl)c4)(C(F)(F)F)OC3)nc2C)cc1 (centres unmarked) [Compound C12]
not listed: [5]
≥ 80%: all other assays above

Cc1cc(C2=CC(c3cc(Cl)cc(Cl)c3)(C(F)(F)F)OC2=O)ccc1C(=O)NC1(C)CSC1 (centres unmarked) [Compound E16]
≥ 80%: [5]

O=C(NC1CS(=O)(=O)C1)c1ccc(C2=CC(c3cc(Cl)cc(Cl)c3)(C(F)(F)F)OC2)nc1Cl (centres unmarked) [Compound F2, 2-Chloro-6-[5-(3,5-dichloro-phenyl)-5-trifluoromethyl-2,5-dihydro-furan-3-yl]-N-(1,1-dioxo-1lambda*6*-thietan-3-yl)-nicotinamide]
not listed: [4]
≥ 80%: all other assays above

N#Cc1cc(C2=CC(c3cc(Cl)cc(Cl)c3)(C(F)(F)F)OC2)ccc1-n1cncn1 (centres unmarked) [Compound G1, 5-[5-(3,5-Dichloro-phenyl)-5-trifluoromethyl-2,5-dihydro-furan-3-yl]-2-[1,2,4]triazol-1-yl-benzonitrile]
not listed: [5]
≥ 80%: all other assays above
